Data: ChEMBL document CHEMBL4028852, “Design of a Chemical Probe for the Bromodomain and Plant Homeodomain Finger-Containing (BRPF) Family of Proteins” (J Med Chem, 2017)
pIC50: −log10 of the molar value. Values after ≈ are worked out from the molar mass of the structure shown.

Columns and labels:
[1] = target: T1, Bromodomain and PHD finger-containing protein 3 (Homo sapiens, UniProt Q9ULD4); assay: Inhibition of human BRPF3 (588 to 701 residues) expressed in Escherichia coli BL21 after 1 hr by BROMOscan assay
T1 sequence (Q9ULD4 whole entry): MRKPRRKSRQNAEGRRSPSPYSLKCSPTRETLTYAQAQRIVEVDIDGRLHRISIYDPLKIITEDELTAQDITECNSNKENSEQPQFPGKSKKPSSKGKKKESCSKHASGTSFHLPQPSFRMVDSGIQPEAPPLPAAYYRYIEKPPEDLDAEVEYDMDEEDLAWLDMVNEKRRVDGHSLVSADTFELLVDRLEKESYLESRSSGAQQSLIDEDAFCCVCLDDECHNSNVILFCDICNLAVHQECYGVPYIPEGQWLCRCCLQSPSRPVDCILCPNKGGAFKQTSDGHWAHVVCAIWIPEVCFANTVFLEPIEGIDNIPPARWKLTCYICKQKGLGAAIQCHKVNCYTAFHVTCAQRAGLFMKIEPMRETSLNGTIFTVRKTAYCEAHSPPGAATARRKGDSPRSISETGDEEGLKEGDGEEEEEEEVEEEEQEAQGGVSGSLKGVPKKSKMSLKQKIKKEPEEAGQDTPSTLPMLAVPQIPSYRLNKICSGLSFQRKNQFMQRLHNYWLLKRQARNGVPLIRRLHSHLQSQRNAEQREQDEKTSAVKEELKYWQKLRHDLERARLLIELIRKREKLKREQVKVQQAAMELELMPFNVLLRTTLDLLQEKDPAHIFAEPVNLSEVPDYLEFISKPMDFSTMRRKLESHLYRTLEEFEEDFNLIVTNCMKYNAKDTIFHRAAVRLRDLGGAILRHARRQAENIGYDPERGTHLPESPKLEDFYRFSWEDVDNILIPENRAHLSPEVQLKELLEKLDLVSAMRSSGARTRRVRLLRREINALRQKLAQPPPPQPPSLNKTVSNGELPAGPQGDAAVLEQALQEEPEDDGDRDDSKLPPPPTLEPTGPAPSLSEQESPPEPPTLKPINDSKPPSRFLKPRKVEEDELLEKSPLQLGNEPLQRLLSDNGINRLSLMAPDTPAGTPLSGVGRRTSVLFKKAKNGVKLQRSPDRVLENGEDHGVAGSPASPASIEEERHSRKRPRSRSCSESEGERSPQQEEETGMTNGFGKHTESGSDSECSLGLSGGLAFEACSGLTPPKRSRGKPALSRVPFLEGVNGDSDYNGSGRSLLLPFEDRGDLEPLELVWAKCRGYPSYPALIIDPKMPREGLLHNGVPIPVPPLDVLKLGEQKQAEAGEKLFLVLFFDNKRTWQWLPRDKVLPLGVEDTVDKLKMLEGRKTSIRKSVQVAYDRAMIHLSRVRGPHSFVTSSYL

[2] = target: T2, Peregrin (Homo sapiens, UniProt P55201); assay: Inhibition of His-tagged BRPF1 (unknown origin) after 30 mins by alphaScreen assay
T2 sequence (P55201 whole entry): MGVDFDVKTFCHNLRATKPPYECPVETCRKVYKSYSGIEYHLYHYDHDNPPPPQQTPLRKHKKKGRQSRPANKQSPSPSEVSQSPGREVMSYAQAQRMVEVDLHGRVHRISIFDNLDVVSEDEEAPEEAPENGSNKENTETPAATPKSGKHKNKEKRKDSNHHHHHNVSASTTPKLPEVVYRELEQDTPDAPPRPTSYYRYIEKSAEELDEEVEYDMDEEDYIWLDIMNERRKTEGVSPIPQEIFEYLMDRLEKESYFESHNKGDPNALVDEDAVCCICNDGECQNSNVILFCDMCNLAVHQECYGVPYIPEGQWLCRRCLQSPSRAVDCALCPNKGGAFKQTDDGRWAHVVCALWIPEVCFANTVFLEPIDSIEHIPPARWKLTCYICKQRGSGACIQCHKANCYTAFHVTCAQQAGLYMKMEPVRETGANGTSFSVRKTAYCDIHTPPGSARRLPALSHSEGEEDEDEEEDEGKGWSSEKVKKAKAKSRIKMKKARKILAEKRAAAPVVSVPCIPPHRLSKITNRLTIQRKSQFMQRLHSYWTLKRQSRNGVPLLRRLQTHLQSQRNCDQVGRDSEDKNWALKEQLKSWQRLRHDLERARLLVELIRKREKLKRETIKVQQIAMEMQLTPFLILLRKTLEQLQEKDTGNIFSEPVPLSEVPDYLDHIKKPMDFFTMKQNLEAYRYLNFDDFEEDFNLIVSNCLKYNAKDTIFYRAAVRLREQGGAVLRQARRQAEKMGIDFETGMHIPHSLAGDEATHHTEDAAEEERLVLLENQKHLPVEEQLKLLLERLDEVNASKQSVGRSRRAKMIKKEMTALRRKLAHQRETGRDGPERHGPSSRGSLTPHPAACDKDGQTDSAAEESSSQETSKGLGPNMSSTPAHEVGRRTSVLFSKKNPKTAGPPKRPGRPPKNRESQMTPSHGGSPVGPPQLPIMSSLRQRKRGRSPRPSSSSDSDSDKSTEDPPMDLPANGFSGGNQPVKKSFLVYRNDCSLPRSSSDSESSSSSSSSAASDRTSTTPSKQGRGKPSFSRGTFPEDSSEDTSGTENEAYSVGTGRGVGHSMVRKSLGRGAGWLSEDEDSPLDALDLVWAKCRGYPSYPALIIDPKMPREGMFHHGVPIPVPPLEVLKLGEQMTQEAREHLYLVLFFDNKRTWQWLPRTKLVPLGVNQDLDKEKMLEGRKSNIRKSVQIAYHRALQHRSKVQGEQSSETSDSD

[3] = Aqueous solubility of compound; format: physicochemical; conditions: buffer
[4] = Inhibition of cell proliferation of human NCI60 cells at 10 uM after 48 hrs by SRB assay; format: functional; conditions: NCI60, 48 h
[5] = Inhibition of cell proliferation of human RERF-LC-Sq1 cells after 72 hrs by MTS assay; format: functional; conditions: RERF-LC-Sq1, 72 h

pIC50 [1]	SMILES	pIC50 [2]	solubility [3] [µM]	inhibition at 10 µM [4] [%]	GI50 [5] [µM]
< 4.00	Cn1c(=O)ccc2cc(S(=O)(=O)Nc3ccccc3)ccc21				
5.34	COc1cc(C#N)ccc1S(=O)(=O)Nc1ccc2c(c1)cc(C(C)C)c(=O)n2C				
	COc1cc(C#N)ccc1S(=O)(=O)Nc1ccc2c(c1)cc(C)c(=O)n2C	6.94	100 (≈ 38.3 µg/mL)	< 25	16.6
